Here are results for 52 compounds from PubChem BioAssay AID743296 (The Scripps Research Institute Molecular Screening Center, 2014).

Molecules are shown by their SMILES. Calls of active or inactive are those of the source. The rule behind the calls is not given here.

The target of this experiment is CCHFV viral ovarian tumor domain protease (vOTU, L protein). Put plainly: CCHFV vOTU protease inhibitor potency, dose response, biochemical, fluorescence, Pep-AMC substrate (AID 743296). Particulars: recombinant CCHFV vOTU.

What is called IC50 is the midpoint of a concentration-inhibition curve. As to `COc1cc(NCCCC(C)N)c2ncccc2c1` (configuration not stated), the IC50 was > 115 µM (inactive). For `CCOC(=O)N=Nc1c2ccccc2c2nc3no[nH]c3nc12`, the IC50 was 2.54 µM.

For the compound `CC1(C)C=C2C(=NN(c3ccccc3)C(N)=C2C#N)CO1`, the 50% inhibitory concentration (IC50) was 1.54 µM. As to `COc1cc(Br)c(C(=O)c2nccc3cc(OC)c(OC)cc23)cc1OC`, the IC50 was 0.276 µM.

For the compound `S=C(Nc1ccc(Cl)cc1)Nc1cccc2cnccc12`, the IC50 entry was “inactive”. Turning to `NS(=O)(=O)c1ccc(NC(=O)COC(=O)c2ccc([N+](=O)[O-])s2)cc1`, the IC50 was 8.1 µM. To `O=C(O)CSc1cc(NS(=O)(=O)c2ccc(Cl)cc2)c2ccccc2c1O` belongs 3.4 µM. The value for `O=C1Cc2ccccc2C(=O)N1` was 0.419 µM; that for `CCOC(=O)c1c2c(n(Cc3ccccc3)c1C)C(=O)C(=O)c1ccccc1-2` was 2.12 µM. For the compound `O=C1Cc2ccccc2C(=O)N1Cc1ccccc1`, the 50% inhibitory concentration (IC50) is 1.19 µM. The value for `O=C(O)CSc1cc(NS(=O)(=O)c2cccc([N+](=O)[O-])c2)c2ccccc2c1O` was 1.95 µM; that for `CC1COCC(C)N1C1=C(Cl)C(=O)c2ccccc2C1=O` (configuration not stated) was 7.43 µM; that for `Cc1c(Cl)cnc(NC(=O)COC(=O)c2ccc([N+](=O)[O-])s2)c1Cl` was “inactive”. In the case of `Cn1nc(-c2ccccn2)nc2c(=O)n(C)c(=O)nc1-2`, the IC50 was 0.251 µM. Take `CCC(CNc1cc(OC)cc2cccnc12)NC1CCCCC1` (configuration not stated): the IC50 was 5.86 µM.

Take `NS(=O)(=O)c1ccc(NC2=CC(=O)C(=O)c3ccccc32)cc1`: the concentration for half-maximal inhibition (IC50) is 4.22 µM. As to `O=C(NC1=CC(=O)c2ccccc2C1=O)c1ccccc1`, the half-inhibitory concentration (IC50) was 4.64 µM. On to `O=C1OC(Nc2cc(Br)cc3cccnc23)c2ccccc21` (configuration not stated), for which the IC50 is > 115 µM (inactive). The value for `Cc1cnc(C2OCCO2)c2cccc(N)c12` was “inactive”; that for `O=S(=O)(Nc1cc2nc3ccccc3nc2n1Cc1ccccc1)c1ccc(Cl)cc1` was 4.14 µM; that for `O=C1C=C(Nc2ccccc2)c2ccccc2C1=O` was 6.64 µM. Take `O=C(O)CSc1cc(NS(=O)(=O)c2ccc(Br)cc2)c2ccccc2c1O`: the IC50 was 1.66 µM. The value for `O=C(OCc1nnc(-c2ccccc2)o1)c1ccc([N+](=O)[O-])s1` was 6.91 µM; that for `COc1cc(NC(=O)COC(=O)c2ccc([N+](=O)[O-])s2)cc(OC)c1OC` was 8.38 µM; that for `COC1=C(N)C(=O)c2nc(C)ccc2C1=O` was 0.824 µM. The value for `CC(C)=CCC1=C(OCC(=O)O)C(=O)c2ccccc2C1=O` was 3.23 µM. To `COc1ccccc1NC(=O)COC(=O)c1ccc([N+](=O)[O-])s1` belongs 7.82 µM. As for `O=C(COC(=O)c1ccc([N+](=O)[O-])s1)Nc1ccc(F)cc1`, the half-maximal inhibitory concentration (IC50) is 7.27 µM. Turning to `CN(C1=C(NC(=O)c2ccccc2)C(=O)c2ccccc2C1=O)C1CCS(=O)(=O)C1` (configuration not stated), the IC50 was 2.67 µM. `O=C1Cc2ccccc2C(=O)N1CCc1ccccc1`: the IC50 is 0.901 µM. The value for `O=C(COC(=O)c1ccc([N+](=O)[O-])s1)Nc1ccccc1` was 8.21 µM. The value for `Cc1ccc(N2C(=O)[C@@H]3[C@H](C2=O)C2c4ccccc4C=CN2[C@@H]3C(=O)c2ccco2)cc1` (some centres not stated) was 6.53 µM. To `COc1cc(C(=O)c2nccc3cc(OC)c(OC)cc23)c([N+](=O)[O-])cc1OC` belongs 1.42 µM.

For the compound `O=C(NC1=C(NC2CCS(=O)(=O)C2)C(=O)c2ccccc2C1=O)c1ccccc1` (configuration not stated), the IC50 was 2.79 µM. In the case of `Nc1cc2c(cc1Br)[nH]c(=O)c1ccccc12`, the IC50 entry is “inactive”. To `COc1ccc2noc3c2c1C(=O)c1ccccc1-3` belongs 8.11 µM; to `CCc1cc[n+](C2=C(NS(=O)(=O)c3cccs3)C(=O)c3ccccc3C2=O)cc1`, 3.5 µM. `COc1cc(NCCCCCCN)c2ncccc2c1OC`: the IC50 entry is “inactive”.

For `O=C(c1ccco1)[C@@H]1[C@@H]2C(=O)N(c3ccc(Br)cc3)C(=O)[C@@H]2C2c3ccccc3C=CN21` (some centres not stated), the IC50 is 5.18 µM. As for `O=C(COC(=O)c1ccc([N+](=O)[O-])s1)Nc1ncc(C(F)(F)F)cc1Cl`, the IC50 result was “inactive”. To `Cc1ccccc1-c1cc2c(nn1)-c1ccccc1C2=O` belongs 0.545 µM. In the case of `Cc1ccc2c(c1C)-c1c(ccc(C)c1C)C(=O)C2=O`, the half-inhibitory concentration (IC50) is 7.46 µM.

Take `CCOC(=O)C1=C(COC(=O)c2ccc([N+](=O)[O-])s2)NC(=O)NC1C` (configuration not stated): the concentration for half-maximal inhibition (IC50) was 7.97 µM.

Consider `COc1cc2c(cc1O)[C@@H]1Cc3ccc(OC)c(O)c3CN1CC2`, for which the IC50 entry is “inactive”. The value for `O=S(=O)(Nc1cc(Sc2ncn[nH]2)c(O)c2ccccc12)c1ccccc1` was 0.458 µM; that for `CC(=O)c1ccc(NC(=S)Nc2cccc3cnccc23)cc1` was > 115 µM (inactive); that for `Cc1ccc(NC2=CC(=O)C(=O)c3ccccc32)cc1` was 5.14 µM. To `COC(CNC(=O)c1ccc2c3c(onc13)-c1ccccc1C2=O)OC` belongs 7.11 µM. The value for `CC1CCCC(NC(=O)COC(=O)c2ccc([N+](=O)[O-])s2)C1C` (configuration not stated) was 9.29 µM.

With `O=C(COC(=O)c1ccc([N+](=O)[O-])s1)NCc1ccc(F)cc1`, the half-maximal inhibitory concentration (IC50) was 9.46 µM. `O=C(/C=C/c1ccc(O)cc1)c1ccc(NC2=C(N3CCCCC3)C(=O)c3ccccc3C2=O)cc1`: the IC50 was 4.19 µM. The value for `NC1=C(Cl)C(=O)c2ccc(S(N)(=O)=O)cc2C1=O` was 0.122 µM.
